Read-outs that look alike come from different tables or passages of the source. Marks after values point to notes of the source that are not given here.
Experiments:
[1] = Plasma ranolazine pharmacokinetics before, during and after posaconazole in normal-weight and obese subjects; assay type: in vivo; conditions: human, oral, 500 mg, Day 1, obese subjects, ranolazine 500 mg ER
[2] = as above; assay type: in vivo, human; conditions: for Time the interaction persisted above an AUC GMR of 1.5: after cessation of posaconazole administration; for Time the interaction persisted above a Cmax GMR of 1.5: after cessation of posaconazole
Method: Procedures. […] On study day 2, subjects received posaconazole (300 mg delayed-release tablet twice a day), and on the mornings of days 3-15, subjects received posaconazole (300 mg delayed-release tablet daily). Because posaconazole is to be taken with food,^6 subjects were fed a continental breakfast in the clinical research unit after receiving posaconazole and before discharge from the unit. […] Samples were centrifuged, and the plasma was separated and frozen at −70° C. until the time of assay of plasma posaconazole concentrations. […] Plasma samples were extracted by methyl tertiary butyl ether, centrifuged, and the upper layer was transferred to plastic injection vials with MeOH/water (50:50). An aliquot of the sample was then injected onto a high-pressure liquid chromatography with tandem mass spectrometry triple quadrupole mass spectrometer (Sciex API-5500). The analytical column was a Unison CK-218, 3 μm particle size HPLC column (50×2 mm) from Imtakt USA (Portland, OR). […] Pharmacokinetic and Statistical Methods. […] This was used to calculate the half-life (t1/2). The area under the plasma concentration curve from time 0 until the last nonzero point was determined by the linear trapezoidal method. To this was added the residual area, calculated as the final nonzero concentration divided by β, yielding the total area under the plasma concentration curve extrapolated to infinity (AUC). Also tabulated was the observed maximum plasma concentration (Cmax). Variables were aggregated as arithmetic mean and SD.

[3] = human, plasma, oral, 500 mg, Day 1 (before posaconazole), normal-weight subjects, ranolazine 500 mg ER, mean ± SD
[4] = human, plasma, oral, 500 mg, Day 1 (before posaconazole), obese subjects, ranolazine 500 mg ER, mean ± SD
[5] = human, plasma, oral, 500 mg, Day 18 (3 days after last posaconazole dose), normal-weight subjects, ranolazine 500 mg ER, mean ± SD
[6] = human, plasma, oral, 500 mg, Day 18 (3 days after last posaconazole dose), obese subjects, ranolazine 500 mg ER, mean ± SD
[7] = human, plasma, oral, 500 mg, Day 22 (7 days after last posaconazole dose), normal-weight subjects, ranolazine 500 mg ER, mean ± SD
[8] = human, plasma, oral, 500 mg, Day 22 (7 days after last posaconazole dose), obese subjects, ranolazine 500 mg ER, mean ± SD
[9] = human, plasma, oral, 500 mg, Day 25 (10 days after last posaconazole dose), normal-weight subjects, ranolazine 500 mg ER, mean ± SD
[10] = human, plasma, oral, 500 mg, Day 25 (10 days after last posaconazole dose), obese subjects, ranolazine 500 mg ER, mean ± SD
[11] = human, plasma, oral, 500 mg, Day 29 (14 days after last posaconazole dose), normal-weight subjects, ranolazine 500 mg ER, mean ± SD
[12] = human, plasma, oral, 500 mg, Day 29 (14 days after last posaconazole dose), obese subjects, ranolazine 500 mg ER, mean ± SD
[13] = human, plasma, oral, Day 15 (last day of posaconazole 300 mg daily), normal-weight subjects, ranolazine 500 mg ER, mean ± SD
[14] = human, plasma, oral, Day 15 (last day of posaconazole 300 mg daily), obese subjects, ranolazine 500 mg ER, mean ± SD

Structure (SMILES): COc1ccccc1OCC(O)CN1CCN(CC(=O)Nc2c(C)cccc2C)CC1 (stereo not shown) [ranolazine]
- Cmax ([1]; read-out: Geometric mean Cmax): 559 ± 271 ng/mL
- AUC ([1]; Geometric mean AUC for ranolazine): 6960 ng·h/mL
- T1/2 ([2]; Day 1 (before posaconazole), normal-weight subjects, ranolazine 500 mg ER, mean ± SD): 4.98 ± 1.50^a h
- Time the interaction persisted above an AUC GMR of 1.5 ([2]; normal-weight subjects): at least 7 days
- Time the interaction persisted above an AUC GMR of 1.5 ([2]; obese subjects): ≥ 10 days
- Time the interaction persisted above a Cmax GMR of 1.5 ([2]; normal-weight subjects): 7 days
- Time the interaction persisted above a Cmax GMR of 1.5 ([2]; obese subjects): 10 days
- Time the lower bound of the AUC GMR 90% CI remained above 1.0 ([2]; both normal-weight and obese subjects): 7 days
- AUC(0-inf) [2, 3]: 7080 ± 3600 ng·h/mL
- half-life [2, 3]: 4.99 ± 1.5 h
- Cmax ([2]; human, plasma, oral, 500 mg, Day 1 (before posaconazole), normal-weight subjects, ranolazine 500 mg extended-release tablet, mean ± SD, read-out: Cmax): 665 ± 318 ng/mL
- AUC(0-inf) [2, 4]: 8130 ± 4840 ng·h/mL
- half-life [2, 4]: 6.02 ± 1.75 h
- Cmax ([2]; human, plasma, oral, 500 mg, Day 1 (before posaconazole), obese subjects, ranolazine 500 mg extended-release tablet, mean ± SD, read-out: Cmax): 559 ± 271 ng/mL
- Cmax ([2]; human, plasma, oral, 500 mg, Day 1, normal-weight subjects, ranolazine 500 mg ER, read-out: Geometric mean Cmax): 665 ± 318 ng/mL
- AUC(0-inf) [2, 5]: 17300 ± 10300 ng·h/mL
- half-life [2, 5]: 5.73 ± 1.53 h
- Cmax ([2]; human, plasma, oral, 500 mg, Day 18 (3 days after last posaconazole dose), normal-weight subjects, ranolazine 500 mg ER, mean ± SD, read-out: Cmax): 1190 ± 469 ng/mL
- AUC(0-inf) [2, 6]: 19300 ± 14200 ng·h/mL
- half-life [2, 6]: 7.93 ± 2.98 h
- Cmax ([2]; human, plasma, oral, 500 mg, Day 18 (3 days after last posaconazole dose), obese subjects, ranolazine 500 mg ER, mean ± SD, read-out: Cmax): 1100 ± 502 ng/mL
- AUC(0-inf) [2, 7]: 13400 ± 6250 ng·h/mL
- half-life [2, 7]: 6.47 ± 3.14 h
- Cmax ([2]; human, plasma, oral, 500 mg, Day 22 (7 days after last posaconazole dose), normal-weight subjects, ranolazine 500 mg ER, mean ± SD, read-out: Cmax): 974 ± 400 ng/mL
- AUC(0-inf) [2, 8]: 15900 ± 11800 ng·h/mL
- half-life [2, 8]: 6.09 ± 2.1 h
- Cmax ([2]; human, plasma, oral, 500 mg, Day 22 (7 days after last posaconazole dose), obese subjects, ranolazine 500 mg ER, mean ± SD, read-out: Cmax): 1060 ± 508 ng/mL
- AUC(0-inf) [2, 9]: 9380 ± 4590 ng·h/mL
- half-life [2, 9]: 5.05 ± 1.82 h
- Cmax ([2]; human, plasma, oral, 500 mg, Day 25 (10 days after last posaconazole dose), normal-weight subjects, ranolazine 500 mg ER, mean ± SD, read-out: Cmax): 928 ± 482 ng/mL
- AUC(0-inf) [2, 10]: 13800 ± 10600 ng·h/mL
- half-life [2, 10]: 6.07 ± 2.1 h
- Cmax ([2]; human, plasma, oral, 500 mg, Day 25 (10 days after last posaconazole dose), obese subjects, ranolazine 500 mg ER, mean ± SD, read-out: Cmax): 976 ± 487 ng/mL
- AUC(0-inf) [2, 11]: 8570 ± 3800 ng·h/mL
- half-life [2, 11]: 4.45 ± 1.38 h
- Cmax ([2]; human, plasma, oral, 500 mg, Day 29 (14 days after last posaconazole dose), normal-weight subjects, ranolazine 500 mg ER, mean ± SD, read-out: Cmax): 751 ± 276 ng/mL
- AUC(0-inf) [2, 12]: 10200 ± 7940 ng·h/mL
- half-life [2, 12]: 6.38 ± 3.05 h
- Cmax ([2]; human, plasma, oral, 500 mg, Day 29 (14 days after last posaconazole dose), obese subjects, ranolazine 500 mg ER, mean ± SD, read-out: Cmax): 719 ± 333 ng/mL
- AUC ([2]; human, plasma, oral, 500 mg, Geometric mean AUC for ranolazine, Day 1, normal-weight subjects, ranolazine 500 mg ER): 6450 ng·h/mL
- AUC(0-inf) [2, 13]: 27500 ± 14900 ng·h/mL
- half-life [2, 13]: 9.54 ± 4.3 h
- Cmax ([2]; human, plasma, oral, Day 15 (last day of posaconazole 300 mg daily), normal-weight subjects, ranolazine 500 mg ER, mean ± SD, read-out: Cmax): 1430 ± 666 ng/mL
- AUC(0-inf) [2, 14]: 25800 ± 21600 ng·h/mL
- half-life [2, 14]: 8.78 ± 5.58 h
- Cmax ([2]; human, plasma, oral, Day 15 (last day of posaconazole 300 mg daily), obese subjects, ranolazine 500 mg ER, mean ± SD, read-out: Cmax): 1180 ± 512 ng/mL

— patent US20230414607A1, “METHODS OF TREATMENT” (BOW RIVER LLC, priority 2017, published 2023)
